# Assay results taken from patent US11591323B2, “Muscarinic agonists as non-steroidal and non-opioid analgesics and methods of use thereof” (Barry University, priority 2019, dated 2023).
# Like-named read-outs stand apart in the source and are kept apart here.
# Assays:
# Parameters in all cases: host or cells: CHO cells, stably transfected
# M2 muscarinic receptor = biological target: T1, M2 muscarinic receptor (Homo sapiens, UniProt P08172); assay: inhibition of forskolin-stimulated cAMP, M2 CHO cells (M2Gi); assay type: cell-based; settings: for Emax: CHO; for Kd: operational model, read-out: pKA (converted); for EC50: read-out: pEC50 (converted)
# T1 sequence (P08172 1-466): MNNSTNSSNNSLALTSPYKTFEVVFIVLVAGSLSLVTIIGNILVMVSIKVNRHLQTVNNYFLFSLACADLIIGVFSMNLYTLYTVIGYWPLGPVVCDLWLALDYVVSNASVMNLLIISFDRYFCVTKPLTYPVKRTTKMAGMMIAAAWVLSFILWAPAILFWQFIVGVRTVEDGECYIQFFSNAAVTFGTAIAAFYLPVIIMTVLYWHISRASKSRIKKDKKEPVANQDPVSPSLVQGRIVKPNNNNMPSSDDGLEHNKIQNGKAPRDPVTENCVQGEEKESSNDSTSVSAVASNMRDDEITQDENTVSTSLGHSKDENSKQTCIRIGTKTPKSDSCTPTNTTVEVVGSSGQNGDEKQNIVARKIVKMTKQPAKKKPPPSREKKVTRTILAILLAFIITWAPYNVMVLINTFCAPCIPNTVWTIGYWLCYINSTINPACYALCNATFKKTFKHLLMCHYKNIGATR
# M3 muscarinic receptor = M3 muscarinic receptor (Homo sapiens, UniProt P20309); assay: accumulation of IPX, M3 CHO cells (M3Gq); assay type: cell-based; settings: for Kd: read-out: pKA (converted); for EC50: read-out: pEC50 (converted)
# Chain of M3 muscarinic receptor (P20309 whole entry): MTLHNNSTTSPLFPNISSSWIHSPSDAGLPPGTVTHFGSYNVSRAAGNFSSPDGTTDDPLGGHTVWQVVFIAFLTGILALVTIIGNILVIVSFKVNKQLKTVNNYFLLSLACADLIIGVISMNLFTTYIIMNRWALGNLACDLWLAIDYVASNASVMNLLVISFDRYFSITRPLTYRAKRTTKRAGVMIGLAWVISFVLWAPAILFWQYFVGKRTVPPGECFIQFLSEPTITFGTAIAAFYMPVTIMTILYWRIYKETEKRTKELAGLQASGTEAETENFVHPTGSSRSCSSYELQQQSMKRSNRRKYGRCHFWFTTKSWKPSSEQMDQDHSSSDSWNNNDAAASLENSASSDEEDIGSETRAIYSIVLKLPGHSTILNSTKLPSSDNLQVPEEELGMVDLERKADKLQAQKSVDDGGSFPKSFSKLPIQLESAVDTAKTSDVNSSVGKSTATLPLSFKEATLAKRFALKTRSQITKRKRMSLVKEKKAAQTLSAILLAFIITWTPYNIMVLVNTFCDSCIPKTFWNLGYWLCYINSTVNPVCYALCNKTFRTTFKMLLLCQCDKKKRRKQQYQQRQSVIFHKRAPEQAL
# M1 muscarinic receptor [1] = biological target: T2, M1 muscarinic receptor (Homo sapiens, UniProt P11229); assay: [3H]NMS competition binding, M1 CHO membranes; settings: competition with 1 nM [3H]NMS; read-out: Inhibition constants (Ki) as negative logarithms, M1 (converted)
# T2 sequence (P11229 1-460): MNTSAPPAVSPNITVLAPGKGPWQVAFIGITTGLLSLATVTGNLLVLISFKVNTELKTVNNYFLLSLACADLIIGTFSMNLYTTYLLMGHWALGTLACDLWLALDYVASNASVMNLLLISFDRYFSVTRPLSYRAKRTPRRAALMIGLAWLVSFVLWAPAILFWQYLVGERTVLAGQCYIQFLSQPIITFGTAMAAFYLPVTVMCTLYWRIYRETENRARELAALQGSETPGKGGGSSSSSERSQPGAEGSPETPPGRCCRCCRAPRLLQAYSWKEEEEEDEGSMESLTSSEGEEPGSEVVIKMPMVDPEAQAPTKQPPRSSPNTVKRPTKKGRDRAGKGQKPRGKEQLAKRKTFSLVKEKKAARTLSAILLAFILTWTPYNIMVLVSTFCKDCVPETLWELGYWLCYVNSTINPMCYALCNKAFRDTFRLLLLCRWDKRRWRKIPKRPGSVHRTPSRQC
# M5 muscarinic receptor = biological target: T3, M5 muscarinic receptor (Homo sapiens, UniProt P08912); assay: [3H]NMS competition binding, M5 CHO membranes; settings: competition with 1 nM [3H]NMS; read-out: Inhibition constants (Ki) as negative logarithms, M5 (converted)
# T3 sequence (P08912 1-532): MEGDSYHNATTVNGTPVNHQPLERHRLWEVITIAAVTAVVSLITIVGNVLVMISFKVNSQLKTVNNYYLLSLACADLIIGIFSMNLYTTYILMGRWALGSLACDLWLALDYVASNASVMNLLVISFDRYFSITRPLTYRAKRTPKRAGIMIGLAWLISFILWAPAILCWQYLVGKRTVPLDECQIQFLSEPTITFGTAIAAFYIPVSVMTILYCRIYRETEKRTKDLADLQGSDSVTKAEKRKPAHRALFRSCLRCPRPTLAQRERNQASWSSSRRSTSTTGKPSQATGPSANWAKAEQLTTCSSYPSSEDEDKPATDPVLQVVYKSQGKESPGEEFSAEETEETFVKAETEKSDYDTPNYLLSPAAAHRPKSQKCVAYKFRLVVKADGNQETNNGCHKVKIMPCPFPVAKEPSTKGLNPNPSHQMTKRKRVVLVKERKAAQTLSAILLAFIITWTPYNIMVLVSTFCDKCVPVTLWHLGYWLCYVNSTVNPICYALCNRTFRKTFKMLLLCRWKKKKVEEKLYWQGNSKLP
# M1 muscarinic receptor [2] = biological target: T2, M1 muscarinic receptor; assay: accumulation of inositol phosphates IPX, M1 CHO cells (M1Gq); assay type: cell-based; settings: for Kd: operational model, read-out: pKA (converted); for EC50: read-out: pEC50 (converted)
# M4 muscarinic receptor = biological target: T4, M4 muscarinic receptor (Homo sapiens, UniProt P08173); assay: [3H]NMS competition binding, M4 CHO membranes
# T4 sequence (P08173 1-479): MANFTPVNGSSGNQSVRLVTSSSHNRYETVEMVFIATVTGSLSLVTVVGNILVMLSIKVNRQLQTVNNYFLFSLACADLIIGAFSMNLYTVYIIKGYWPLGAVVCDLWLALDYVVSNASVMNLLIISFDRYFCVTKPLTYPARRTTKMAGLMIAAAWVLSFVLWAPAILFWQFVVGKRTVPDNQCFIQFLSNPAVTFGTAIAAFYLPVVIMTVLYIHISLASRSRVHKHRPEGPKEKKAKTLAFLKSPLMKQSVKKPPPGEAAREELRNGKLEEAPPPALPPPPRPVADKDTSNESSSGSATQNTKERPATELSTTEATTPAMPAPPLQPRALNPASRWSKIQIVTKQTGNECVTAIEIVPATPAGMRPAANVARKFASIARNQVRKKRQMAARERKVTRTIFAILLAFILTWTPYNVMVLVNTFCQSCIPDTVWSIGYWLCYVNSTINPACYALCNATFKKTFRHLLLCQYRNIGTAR
# [3] = M2 (↓cAMP), preferential response, Table 7
# [4] = M2 (↓cAMP), preferential response, to carbachol, Tables 2, 3, 7
# [5] = M2Gi (↓cAMP), Table 8, to carbachol
# [6] = M3 (↑IPX), preferential response, Table 7
# [7] = M3 (↑IPX), preferential response, Table 7, operational efficacy
# [8] = M3 (↑IPX), preferential response, Table 7, operational model
# [9] = M3 (↑IPX), preferential response, relative to carbachol, Tables 2, 3, 7
# [10] = M3 (↑IPX), preferential response, to carbachol, Tables 2, 3, 7
# [11] = M1 (↑IPX), preferential response, Table 7
# [12] = M1 (↑IPX), preferential response, Table 7, operational efficacy
# [13] = M1 (↑IPX), preferential response, relative to carbachol, Tables 2, 3, 7
# [14] = M1 (↑IPX), preferential response, to carbachol, Tables 2, 3, 7
# [15] = M2 (↓cAMP), preferential response, Table 7, read-out: E′MAX
# [16] = M2 (↓cAMP), preferential response, Table 7, operational efficacy
# [17] = competition with 1 nM [3H]NMS, read-out: Inhibition constants (Ki) as negative logarithms, M4 (converted)
# [18] = M2 (↓cAMP), preferential response, relative to carbachol, Tables 2, 3, 7
RAi (M3 muscarinic receptor; [9]),Δlog(τ/KA) (M3 muscarinic receptor; [10]),RAi (M1 muscarinic receptor [2]; [13]),Δlog(τ/KA) (M1 muscarinic receptor [2]; [14]),Emax (M2 muscarinic receptor; [15]),SMILES,Δlog(τ/KA) (M2 muscarinic receptor; [4]),E′MAX (M3 muscarinic receptor; [6]),τ (M3 muscarinic receptor; [7]),Kd (M3 muscarinic receptor; [8]),EC50 (M3 muscarinic receptor; [6]),Ki (M1 muscarinic receptor [1]),Ki (M5 muscarinic receptor),E′MAX (M1 muscarinic receptor [2]; [11]),τ (M1 muscarinic receptor [2]; [12]),Kd (M1 muscarinic receptor [2]; [11]),EC50 (M1 muscarinic receptor [2]; [11]),τ (M2 muscarinic receptor; [16]),Kd (M2 muscarinic receptor; [3]),EC50 (M2 muscarinic receptor; [3]),Ki (M4 muscarinic receptor; [17]),also measured
–,–,–,–,–,"C[N+](C)(C)CCOC(N)=O [carbachol, reference compound]",0,–,–,–,–,–,–,–,–,–,–,–,–,–,–,"E′MAX (M2 muscarinic receptor; [3]): 44 ± 1 % inhibition; E′MAX (M2 muscarinic receptor; M2Gi (↓cAMP), Table 8): 44 ± 1 % inhibition; Δlog(τ/KA) (M2 muscarinic receptor; [5]): 0"
0.0006 ± 0.0001,3.24 ± 0.34,0.0005 ± 0.0001,3.28 ± 0.38,47 ± 2%,"Cc1ccc(CN2CC=CCC2)s1.Cl [Compound 6B, 1-[(5-methylthiophen-2-yl)methyl]-1,2,3,6-tetrahydropyridin-1-ium chloride]",2.35 ± 0.16,2.0 ± 0.2 fold over basal,0.04 ± 0.01,15.8 µM,31.6 µM,25.1 µM,24 µM,2.0 ± 0.2 fold over basal,0.03 ± 0.01,15.8 µM,15.8 µM,1.15 ± 0.08,20 µM,9.12 µM,28.8 µM,"RAi (M2 muscarinic receptor; [18]): 0.0047 ± 0.0004; binding that occurred with high affinity (M4 muscarinic receptor; fraction of binding to M4): ~10%; Ki (M4 muscarinic receptor; high-affinity fraction of binding to M4, read-out: high affinity binding): ~0.03 µM; Ki (M4 muscarinic receptor; high-affinity fraction, M4, read-out: pKI of high affinity binding (converted)): 0.02 µM"
0.0029 ± 0.0004,2.53 ± 0.33,0.0024 ± 0.0002,2.62 ± 0.36,24 ± 1%,"Brc1ccc(CN2CC=CCC2)s1.Cl [Compound 6C, 1-[(5-bromothiophen-2-yl)methyl]-1,2,3,6-tetrahydropyridin-1-ium chloride]",2.02 ± 0.22,1.8 ± 0.1 fold over basal,0.03 ± 0.01,3.98 µM,5.01 µM,7.59 µM,12.9 µM,2.1 ± 0.2 fold over basal,0.03 ± 0.01,3.98 µM,3.47 µM,0.38 ± 0.04,3.16 µM,2.19 µM,12.6 µM,RAi (M2 muscarinic receptor; [18]): 0.0070 ± 0.0006
–,–,–,–,–,"C[N+]1(Cc2ccc(Br)s2)CC=CCC1.[I-] (centres unmarked) [Compound 7C, 1-[(5-bromothiophen-2-yl)methyl]-1-methyl-1,2,3,6-tetrahydropyridin-1-ium iodide]",1.69 ± 0.09,1.6 ± 0.1 fold over basal,0.02 ± 0.01,2.51 µM,2.51 µM,1.51 µM,0.977 µM,1.8 ± 0.2 fold over basal,0.02 ± 0.01,2.51 µM,2.51 µM,0.76 ± 0.08,3.16 µM,1.62 µM,1.45 µM,RAi (M3 muscarinic receptor): 0.0042 ± 0.0005; Δlog(τ/KA) (M3 muscarinic receptor): 2.38 ± 0.66; RAi (M1 muscarinic receptor [2]): 0.0024 ± 0.0004; Δlog(τ/KA) (M1 muscarinic receptor [2]): 2.62 ± 0.18; Emax (M2 muscarinic receptor): 38 ± 2%; RAi (M2 muscarinic receptor; [18]): 0.018 ± 0.002

SMILES,RAi (M3 muscarinic receptor; [9]),Δlog(τ/KA) (M3 muscarinic receptor; [10]),RAi (M1 muscarinic receptor [2]; [13]),Δlog(τ/KA) (M1 muscarinic receptor [2]; [14]),Emax (M2 muscarinic receptor; [15]),Δlog(τ/KA) (M2 muscarinic receptor; [4]),E′MAX (M3 muscarinic receptor; [6]),τ (M3 muscarinic receptor; [7]),Kd (M3 muscarinic receptor; [8]),EC50 (M3 muscarinic receptor; [6]),Ki (M1 muscarinic receptor [1]),Ki (M5 muscarinic receptor),E′MAX (M1 muscarinic receptor [2]; [11]),τ (M1 muscarinic receptor [2]; [12]),Kd (M1 muscarinic receptor [2]; [11]),EC50 (M1 muscarinic receptor [2]; [11]),τ (M2 muscarinic receptor; [16]),Kd (M2 muscarinic receptor; [3]),EC50 (M2 muscarinic receptor; [3]),Ki (M4 muscarinic receptor; [17]),also measured
"C[N+]1(Cc2cccs2)CC=CCC1.[I-] (centres unmarked) [Compound 7A, 1-methyl-1-[(thiophen-2-yl)methyl]-1,2,3,6-tetrahydropyridin-1-ium iodide]",0.011 ± 0.001,1.94 ± 0.20,0.0111 ± 0.0002,1.96 ± 0.16,53 ± 2%,–,3.0 ± 0.3 fold over basal,0.08 ± 0.01,3.16 µM,3.16 µM,11.2 µM,10 µM,4.6 ± 0.4 fold over basal,0.12 ± 0.01,3.16 µM,2.63 µM,1.51 ± 0.15,1 µM,0.389 µM,7.94 µM,"E′MAX (M3 muscarinic receptor; M3Gq (↑IPX), Table 8): 2.6 ± 0.3 fold over basal; τ (M3 muscarinic receptor; M3Gq (↑IPX), Table 8): 0.06 ± 0.01; RAi (M3 muscarinic receptor; M3Gq (↑IPX), Table 8, relative to carbachol): 0.0084 ± 0.0011; Δlog(τ/KA) (M3 muscarinic receptor; M3Gq (↑IPX), Table 8, to carbachol): 2.08 ± 0.34; EC50 (M3 muscarinic receptor; M3Gq (↑IPX), Table 8): 3.98 µM; Kd (M3 muscarinic receptor; M3Gq (↑IPX), Table 8): 3.98 µM; E′MAX (M1 muscarinic receptor [2]; M1Gq (↑IPX), Table 8): 4.6 ± 0.4 fold increase; pEC50 (M1 muscarinic receptor [2]; M1Gq (↑IPX), Table 8): 5.58 ± 0.03; pKA (M1 muscarinic receptor [2]; M1Gq (↑IPX), Table 8): 5.5 ± 0.1; τ (M1 muscarinic receptor [2]; M1Gq (↑IPX), Table 8): 0.12 ± 0.01; RAi (M1 muscarinic receptor [2]; M1Gq (↑IPX), Table 8, relative to carbachol): 0.012 ± 0.006; Δlog(τ/KA) (M1 muscarinic receptor [2]; M1Gq (↑IPX), Table 8, to carbachol): 1.93 ± 0.25; E′MAX (M2 muscarinic receptor; M2Gi (↓cAMP), Table 8): 53 ± 2 % inhibition; pEC50 (M2 muscarinic receptor; M2Gi (↓cAMP), Table 8): 6.41 ± 0.05; pKA (M2 muscarinic receptor; M2Gi (↓cAMP), Table 8): 6.0 ± 0.1; τ (M2 muscarinic receptor; M2Gi (↓cAMP), Table 8): 1.5 ± 0.2; RAi (M2 muscarinic receptor; M2Gi (↓cAMP), Table 8, relative to carbachol): 0.140 ± 0.008; Δlog(τ/KA) (M2 muscarinic receptor; [5]): 0.93 ± 0.09"
